Test results taken from ChEMBL document CHEMBL1201862, “PubChem BioAssay data set” (2004).
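Interpolation was linear, between the two tested concentrations surrounding the appropriate level; five concentrations were tested over 48 hours in 96-well plates. Abbreviation: GI50, concentration required for 50% inhibition of growth.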 The source made the active and inactive calls. No stated cut-off is given here; in the data, active = GI50 up to about 1.1 µM and inactive = higher.

Columns and labels:
Experiment in all cases: inhibition of tumour cell growth, NCI panel, 48 h
[1] = test system: SW-620
[2] = test system: HL-60
[3] = test system: Hs-578T
[4] = test system: OVCAR-4
[5] = test system: SK-MEL-5
[6] = test system: SN12C
[7] = test system: KM12
[8] = test system: MOLT-4
[9] = test system: DU-145
[10] = test system: EKVX
[11] = test system: NCI-H522
[12] = test system: SNB-19
[13] = test system: CCRF-CEM
[14] = test system: A549
[15] = test system: HCT-116
[16] = test system: SF-295
[17] = test system: MDA-MB-231
[18] = test system: A498
[19] = test system: OVCAR-5
[20] = test system: ACHN
[21] = test system: IGROV-1
[22] = test system: TK-10
[23] = test system: HOP-92
[24] = test system: LOX IMVI
[25] = test system: SK-MEL-2
[26] = test system: T47D
[27] = test system: U-251
[28] = test system: HCT-15
[29] = test system: SNB-75
[30] = test system: SF-539
[31] = test system: OVCAR-8
[32] = test system: RPMI-8226
[33] = test system: UACC-257
[34] = test system: M14
[35] = test system: MDA-N
[36] = test system: RXF 393
[37] = test system: SF-268
[38] = test system: COLO 205
[39] = test system: PC-3
[40] = test system: MDA-MB-435
[41] = test system: NCI-H226
[42] = test system: UACC-62
[43] = test system: HT-29
[44] = test system: NCI-H460
[45] = test system: NCI-H23
[46] = test system: UO-31
[47] = test system: CAKI-1
[48] = test system: BT-549
[49] = test system: 786-0
[50] = test system: SK-OV-3
[51] = test system: MCF7
[52] = test system: NCI/ADR-RES
[53] = test system: OVCAR-3
[54] = test system: SR
[55] = test system: Malme-3M
[56] = test system: HCC 2998
[57] = test system: K562
[58] = test system: HOP-62
[59] = test system: SK-MEL-28

CC(=O)Nc1ncc2c(n1)-c1ccccc1OC2c1ccccc1 (configuration not stated)
GI50 [1]: > 100 µM (inactive) | GI50 [2]: > 100 µM (inactive) | GI50 [3]: 6.89 µM (inactive) | GI50 [4]: 18.5 µM (inactive) | GI50 [5]: > 100 µM (inactive) | GI50 [6]: 87.9 µM (inactive) | GI50 [7]: > 100 µM (inactive) | GI50 [8]: > 100 µM (inactive) | GI50 [9]: > 100 µM (inactive) | GI50 [10]: 61 µM (inactive) | GI50 [11]: 37.7 µM (inactive) | GI50 [12]: 20.8 µM (inactive) | GI50 [13]: > 100 µM (inactive) | GI50 [14]: > 100 µM (inactive) | GI50 [15]: 80.9 µM (inactive) | GI50 [16]: 32.2 µM (inactive) | GI50 [17]: 21.7 µM (inactive) | GI50 [18]: 20.7 µM (inactive) | GI50 [19]: > 100 µM (inactive) | GI50 [20]: 11 µM (inactive) | GI50 [21]: 46.5 µM (inactive) | GI50 [22]: 28.7 µM (inactive) | GI50 [23]: 14.8 µM (inactive) | GI50 [24]: > 100 µM (inactive) | GI50 [25]: 71.8 µM (inactive) | GI50 [26]: 24.7 µM (inactive) | GI50 [27]: 33.1 µM (inactive) | GI50 [28]: > 100 µM | GI50 [29]: 14.1 µM (inactive) | GI50 [30]: 13.2 µM (inactive) | GI50 [31]: 23.6 µM (inactive) | GI50 [32]: > 100 µM (inactive) | GI50 [33]: > 100 µM (inactive) | GI50 [34]: > 100 µM (inactive) | GI50 [35]: > 100 µM (inactive) | GI50 [36]: 17.1 µM (inactive) | GI50 [37]: 15.4 µM (inactive) | GI50 [38]: > 100 µM (inactive) | GI50 [39]: > 100 µM (inactive) | GI50 [40]: > 100 µM (inactive) | GI50 [41]: 20.5 µM (inactive) | GI50 [42]: 14.1 µM (inactive) | GI50 [43]: > 100 µM (inactive) | GI50 [44]: > 100 µM (inactive) | GI50 [45]: 26.1 µM (inactive) | GI50 [46]: > 100 µM (inactive) | GI50 [47]: 26.1 µM (inactive) | GI50 [48]: 27.7 µM (inactive) | GI50 [49]: 12.4 µM (inactive) | GI50 [50]: 42.8 µM (inactive) | GI50 [51]: > 100 µM (inactive) | GI50 [52]: 32.8 µM (inactive) | GI50 [53]: > 100 µM (inactive) | GI50 [54]: > 100 µM (inactive)

Nc1cc(N)cc(Cc2ccccc2)c1
GI50 [1]: > 100 µM (inactive) | GI50 [2]: > 100 µM (inactive) | GI50 [3]: > 100 µM (inactive) | GI50 [4]: > 100 µM (inactive) | GI50 [5]: > 100 µM (inactive) | GI50 [6]: > 100 µM (inactive) | GI50 [7]: > 100 µM (inactive) | GI50 [8]: > 100 µM (inactive) | GI50 [9]: > 100 µM (inactive) | GI50 [10]: > 100 µM (inactive) | GI50 [11]: > 100 µM (inactive) | GI50 [12]: > 100 µM (inactive) | GI50 [13]: > 100 µM (inactive) | GI50 [14]: > 100 µM (inactive) | GI50 [15]: > 100 µM (inactive) | GI50 [16]: > 100 µM (inactive) | GI50 [17]: > 100 µM (inactive) | GI50 [18]: > 100 µM (inactive) | GI50 [19]: > 100 µM (inactive) | GI50 [20]: > 100 µM (inactive) | GI50 [21]: > 100 µM (inactive) | GI50 [22]: > 100 µM (inactive) | GI50 [23]: > 100 µM (inactive) | GI50 [24]: > 100 µM (inactive) | GI50 [25]: > 100 µM (inactive) | GI50 [26]: > 100 µM (inactive) | GI50 [55]: > 100 µM (inactive) | GI50 [27]: > 100 µM (inactive) | GI50 [28]: > 100 µM | GI50 [56]: > 100 µM (inactive) | GI50 [30]: > 100 µM (inactive) | GI50 [57]: > 100 µM (inactive) | GI50 [31]: > 100 µM (inactive) | GI50 [33]: > 100 µM (inactive) | GI50 [34]: > 100 µM (inactive) | GI50 [35]: > 100 µM (inactive) | GI50 [58]: > 100 µM (inactive) | GI50 [36]: > 100 µM (inactive) | GI50 [37]: > 100 µM (inactive) | GI50 [38]: > 100 µM (inactive) | GI50 [39]: > 100 µM (inactive) | GI50 [40]: > 100 µM (inactive) | GI50 [59]: > 100 µM (inactive) | GI50 [41]: > 100 µM (inactive) | GI50 [43]: > 100 µM (inactive) | GI50 [44]: > 100 µM (inactive) | GI50 [45]: > 100 µM (inactive) | GI50 [46]: > 100 µM (inactive) | GI50 [47]: > 100 µM (inactive) | GI50 [48]: > 100 µM (inactive) | GI50 [49]: > 100 µM (inactive) | GI50 [50]: > 100 µM (inactive) | GI50 [51]: > 100 µM (inactive) | GI50 [52]: > 100 µM (inactive) | GI50 [53]: > 100 µM (inactive) | GI50 [54]: > 100 µM (inactive)

C=CCOc1cccc(C2(O)c3ccccc3C3=NCCCN32)c1 (configuration not stated)
GI50 [1]: 11.9 µM (inactive) | GI50 [2]: 1.47 µM (inactive) | GI50 [3]: 28.6 µM (inactive) | GI50 [4]: 15.5 µM (inactive) | GI50 [5]: 17 µM (inactive) | GI50 [6]: 31.1 µM (inactive) | GI50 [7]: 7.48 µM (inactive) | GI50 [8]: 10.2 µM (inactive) | GI50 [9]: 41.2 µM (inactive) | GI50 [10]: 3.77 µM (inactive) | GI50 [11]: 19.5 µM (inactive) | GI50 [12]: 2.45 µM (inactive) | GI50 [13]: 15.4 µM (inactive) | GI50 [14]: 5.6 µM (inactive) | GI50 [15]: 10.9 µM (inactive) | GI50 [17]: 57 µM (inactive) | GI50 [18]: 21.8 µM (inactive) | GI50 [19]: 29.7 µM (inactive) | GI50 [20]: 3.63 µM (inactive) | GI50 [21]: 8.38 µM (inactive) | GI50 [22]: 33.3 µM (inactive) | GI50 [23]: 21.8 µM (inactive) | GI50 [24]: 14.5 µM (inactive) | GI50 [25]: 1.72 µM (inactive) | GI50 [26]: 17.4 µM (inactive) | GI50 [55]: 19.9 µM (inactive) | GI50 [27]: 15.6 µM (inactive) | GI50 [28]: 20.6 µM | GI50 [56]: 14.5 µM (inactive) | GI50 [29]: 5.06 µM (inactive) | GI50 [30]: 15.8 µM (inactive) | GI50 [57]: 4.58 µM (inactive) | GI50 [31]: 14.4 µM (inactive) | GI50 [32]: 15.2 µM (inactive) | GI50 [33]: 16 µM (inactive) | GI50 [34]: 12.4 µM (inactive) | GI50 [35]: 17.1 µM (inactive) | GI50 [58]: 6.84 µM (inactive) | GI50 [37]: 54.7 µM (inactive) | GI50 [38]: 15 µM (inactive) | GI50 [39]: 10.3 µM (inactive) | GI50 [40]: 13 µM (inactive) | GI50 [59]: 5.51 µM (inactive) | GI50 [41]: 3.38 µM (inactive) | GI50 [42]: 16.1 µM (inactive) | GI50 [43]: 8.57 µM (inactive) | GI50 [44]: 16.8 µM (inactive) | GI50 [45]: 10.3 µM (inactive) | GI50 [46]: 13.8 µM (inactive) | GI50 [47]: 34.7 µM (inactive) | GI50 [48]: > 100 µM (inactive) | GI50 [49]: 8.49 µM (inactive) | GI50 [50]: 37.7 µM (inactive) | GI50 [51]: 16.8 µM (inactive) | GI50 [52]: > 35.2 µM (inactive) | GI50 [53]: 1.25 µM (inactive) | GI50 [54]: 8.81 µM (inactive)
